Results: ChEMBL document CHEMBL1201862, “PubChem BioAssay data set” (2004)
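Growth conditions: 96-well plates. Treatment: test compound, 48 hours, 5 concentrations. Analysis: linear interpolation between bracketing concentrations; unreached endpoints set to highest concentration. Abbreviation: GI50, concentration required for 50% inhibition of growth.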 The source made the active and inactive calls. No stated cut-off is given here; in the data, active = GI50 up to about 1.1 µM and inactive = higher.

Columns and labels:
Assay in all cases: NCI-60 cell line screen, 48 h
[1] = test system: A549
[2] = test system: CCRF-CEM
[3] = test system: EKVX
[4] = test system: HCT-15
[5] = test system: HL-60
[6] = test system: HT-29
[7] = test system: Hs-578T
[8] = test system: M14
[9] = test system: MDA-MB-435
[10] = test system: Malme-3M
[11] = test system: NCI/ADR-RES
[12] = test system: OVCAR-3
[13] = test system: RPMI-8226
[14] = test system: SF-539
[15] = test system: SK-MEL-5
[16] = test system: SN12C
[17] = test system: SR
[18] = test system: U-251
[19] = test system: UACC-62
[20] = test system: HOP-62

Compound	GI50 [1]	GI50 [2]	GI50 [3]	GI50 [4] [µM]	GI50 [5]	GI50 [6]	GI50 [7]	GI50 [8]	GI50 [9]	GI50 [10]	GI50 [11]	GI50 [12]	GI50 [13]	GI50 [14]	GI50 [15]	GI50 [16]	GI50 [17]	GI50 [18]	GI50 [19]	GI50 [20]
Cc1ccc(-c2cc(-c3c(C)nn(C)c(=O)c3N)n[nH]2)cc1	> 100 µM (inactive)	> 100 µM (inactive)	83 µM (inactive)	> 100	> 100 µM (inactive)	> 100 µM (inactive)	> 100 µM (inactive)	> 100 µM (inactive)	> 100 µM (inactive)	> 100 µM (inactive)	> 100 µM (inactive)	88.3 µM (inactive)	99.1 µM (inactive)	> 100 µM (inactive)	> 100 µM (inactive)	> 100 µM (inactive)	> 100 µM (inactive)	> 100 µM (inactive)	> 100 µM (inactive)	–
N#Cc1cc2c(cc1Cl)Sc1nnc(Nc3ccccc3)n1S2(=O)=O	5.94 µM (inactive)	1.56 µM (inactive)	2.77 µM (inactive)	2.08	3.05 µM (inactive)	2.12 µM (inactive)	2.3 µM (inactive)	2.17 µM (inactive)	2.08 µM (inactive)	2.19 µM (inactive)	1.78 µM (inactive)	1.64 µM (inactive)	0.692 µM (active)	2.07 µM (inactive)	2.43 µM (inactive)	1.71 µM (inactive)	0.15 µM (active)	1.87 µM (inactive)	1.83 µM (inactive)	1.57 µM (inactive)
O=C1NC2c3c(I)sc(I)c3/C(=N\O)C2O1 (stereo not given)	48.9 µM (inactive)	24.3 µM (inactive)	10.9 µM (inactive)	24.4	20 µM (inactive)	17.9 µM (inactive)	11.5 µM (inactive)	36.8 µM (inactive)	26.5 µM (inactive)	25.1 µM (inactive)	20.4 µM (inactive)	18.2 µM (inactive)	67.9 µM (inactive)	14.2 µM (inactive)	–	30.8 µM (inactive)	29.9 µM (inactive)	23.1 µM (inactive)	20.7 µM (inactive)	30.5 µM (inactive)
O=Cc1ccc(-c2ccc(S(=O)(=O)O)cc2)o1	> 100 µM (inactive)	> 10 µM (inactive)	> 100 µM (inactive)	> 100	> 100 µM (inactive)	> 100 µM (inactive)	> 100 µM (inactive)	> 100 µM (inactive)	> 100 µM (inactive)	> 100 µM (inactive)	> 100 µM (inactive)	> 100 µM (inactive)	> 100 µM (inactive)	> 100 µM (inactive)	> 100 µM (inactive)	> 100 µM (inactive)	> 100 µM (inactive)	> 100 µM (inactive)	> 100 µM (inactive)	–
CC(=O)OCc1cc2c(s1)C(=O)c1sccc1C2=O	0.181 µM (active)	0.383 µM (active)	0.197 µM (active)	0.156	0.29 µM (active)	0.65 µM (active)	0.157 µM (active)	< 0.0139 µM (active)	0.0178 µM (active)	0.272 µM (active)	0.2 µM (active)	0.223 µM (active)	0.239 µM (active)	0.115 µM (active)	0.0426 µM (active)	0.13 µM (active)	1.89 µM (inactive)	0.248 µM (active)	0.166 µM (active)	–
O=[N+]([O-])c1cc2c(c([N+](=O)[O-])c1)NCc1ccccc1O2	> 100 µM (inactive)	24.3 µM (inactive)	> 100 µM (inactive)	> 100	> 100 µM (inactive)	> 100 µM (inactive)	70.8 µM (inactive)	–	> 100 µM (inactive)	> 100 µM (inactive)	> 100 µM (inactive)	> 100 µM (inactive)	> 100 µM (inactive)	69.3 µM (inactive)	> 100 µM (inactive)	> 100 µM (inactive)	55.5 µM (inactive)	41.2 µM (inactive)	> 100 µM (inactive)	30.8 µM (inactive)
